# Experimental data from US20250034170A1, “SMALL MOLECULE MODULATORS OF GLUCOCEREBROSIDASE ACTIVITY AND USES THEREOF” (Vanqua Bio, Inc., priority 2021, published 2025).
# Target: T1, GCase (Homo sapiens, UniProt P04062)
# T1 construct: endogenous in cells; host or cells: HeLa cells
# T1 sequence (P04062 40-536): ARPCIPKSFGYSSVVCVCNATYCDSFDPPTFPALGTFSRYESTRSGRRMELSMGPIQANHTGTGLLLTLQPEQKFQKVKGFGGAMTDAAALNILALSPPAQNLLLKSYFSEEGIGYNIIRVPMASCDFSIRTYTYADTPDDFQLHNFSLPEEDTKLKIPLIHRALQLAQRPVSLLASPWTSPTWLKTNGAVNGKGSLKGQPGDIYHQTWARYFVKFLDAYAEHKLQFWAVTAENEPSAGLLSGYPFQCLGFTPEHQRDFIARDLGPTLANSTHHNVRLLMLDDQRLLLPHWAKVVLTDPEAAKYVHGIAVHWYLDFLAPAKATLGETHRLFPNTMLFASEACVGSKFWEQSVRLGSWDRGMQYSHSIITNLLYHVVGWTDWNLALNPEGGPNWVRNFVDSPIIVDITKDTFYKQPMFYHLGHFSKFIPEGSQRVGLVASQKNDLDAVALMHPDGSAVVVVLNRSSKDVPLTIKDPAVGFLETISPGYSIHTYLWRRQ
# Assay: activation of GCase in a live cell PFB assay in HELA cells
# Type: cell-based
# Description: Exemplary compounds were evaluated for activation of GCase in a live cell PFB assay in HELA cells (essentially as described in Ysselstein et al., “LRRK2 kinase activity regulates lysosomal glucocerebrosidase in neurons derived from Parkinson's disease patients” Nature Communications (2019) 10:5570). […] EC50 ranges: A: <10 μM; B: >10-50 μM; C: >50-100 μM; D: >100 μM.
# [1] = activation of GCase, EC50 ranges
Compound,EC50 [1] [µM],EC50 (EC50 given as range classes) [µM]
FC(F)Cn1ncc2ncc(N3CCC4(CCN(c5ccnc(OCC(F)(F)F)n5)C4)CC3)nc21 [Cmpd 738],< 10,
O=C1N(c2cc(C(F)(F)F)ccn2)C(=O)C2(CCN(c3cnc4cnn(CC(F)F)c4n3)CC2)N1Cc1ccc(F)c(F)c1 [Cmpd 719],< 10,
CC(c1ccnc(C(F)(F)F)c1)N1CC2(CCN(c3cnc4cnn(CC(F)F)c4n3)CC2)CC1=O (centres unmarked) [Cmpd 969],< 10,
CCN1C(=O)N(c2ccc(C(F)(F)F)cc2)C(=O)C12CCN(c1cnc3c(C)nn(CC(F)F)c3n1)CC2 [Cmpd 872],< 10,
"FC(F)(F)Cn1ncc2ncc(N3CC4(CCCN(c5ccc(C(F)(F)F)nc5)C4)C3)nc21 [Compound 136, 2-[1-(2,2,2-trifluoroethyl)-1H-pyrazolo[3,4-b]pyrazin-6-yl]-6-[6-(trifluoromethyl)pyridin-3-yl]-2,6-diazaspiro[3.5]nonane]",10 to 50,
O=C1N(c2cncc(C(F)(F)F)n2)CCC12CCN(c1cnc3cnn(CC(F)F)c3n1)CC2 [Cmpd 774],< 10,
O=C1CC2(CCN(c3cnc4cnn(CC(F)F)c4n3)CC2)CN1Cc1ccnc(C(F)(F)F)n1 [Cmpd 915],< 10,
FC(F)Cn1ncc2ncc(N[C@H]3CC[C@@]4(CCN(c5cc(C(F)(F)F)ccn5)C4)CC3)nc21 [Cmpd 197],,10 to 50
"FC(F)Cn1ncc2ncc(N3CC4(CCCN(c5ccc(C(F)(F)F)nc5)C4)C3)nc21 [Compound 20, 2-[1-(2,2-difluoroethyl)-1H-pyrazolo[3,4-b]pyrazin-6-yl]-6-[6-(trifluoromethyl)pyridin-3-yl]-2,6-diazaspiro[3.5]nonane]",10 to 50,
"FC(F)Cn1ncc2ncc(NC3CCC4(C3)CN(c3ccc(C(F)(F)F)nc3)C4)nc21 (centres unmarked) [Compound 189, N-[1-(2,2-difluoroethyl)-1H-pyrazolo[3,4-b]pyrazin-6-yl]-2-[6-(trifluoromethyl)pyridin-3-yl]-2-azaspiro[3.4]octan-6-amine]",,< 10
O=C1N(Cc2cncc(Cl)c2)CCC12CCN(c1cnc3cnn(CC(F)F)c3n1)CC2 [Cmpd 333],< 10,
"FC(F)Cn1ncc2ncc(N3CCC4(CN(c5ccc(C(F)(F)F)nc5)CCO4)C3)nc21 (centres unmarked) [Compound 176, 2-[1-(2,2-difluoroethyl)-1H-pyrazolo[3,4-b]pyrazin-6-yl]-9-[6-(trifluoromethyl)pyridin-3-yl]-6-oxa-2,9-diazaspiro[4.5]decane]",> 100,
FC(F)Cn1ncc2ncc(NC3CCC4(CCN(c5cc(C(F)(F)F)ccn5)C4)C3)nc21 (centres unmarked) [Cmpd 194],,< 10
Cc1nc(N2CC3(CCN(c4cnc5cnn(C6COC6)c5n4)CC3)C2)cc(C(F)(F)F)n1 [Cmpd 563],> 100,
FC(F)(F)c1ncc(N2CCC3(CCN(c4cncc(-c5nncs5)n4)CC3)C2)cn1 [Cmpd 823],,10 to 50
"FC(F)Cn1ncc2ncc(N3CCC4(CC3)CC(Oc3cccc(C(F)(F)F)n3)C4)nc21 [Compound 84, 7-[1-(2,2-difluoroethyl)-1H-pyrazolo[3,4-b]pyrazin-6-yl]-2-{[6-(trifluoromethyl)pyridin-2-yl]oxy}-7-azaspiro[3.5]nonane]",10 to 50,
Cc1nc(N2CCC3(CCN(c4cnc5cnn(C6COC6)c5n4)CC3)C2)cc(C(F)(F)F)n1 [Cmpd 574],10 to 50,
Cc1nc(N2CC3(CCN(c4ncc5c(C)nn(CC(F)F)c5n4)C3)C2)cc(C(F)(F)F)n1 [Cmpd 502],< 10,
FC(F)Cn1ncc2ncc(N3CCC4(CN(c5cnc(C6CC6)nc5)C4)C3)nc21 [Cmpd 560],10 to 50,
CCc1nn(CC(F)F)c2nc(N3CCC4(CN(c5ccnc(C(F)(F)F)c5)C4)C3)cnc12 [Cmpd 1068],10 to 50,
FC(F)Cn1ncc2ncc(N3CCC4(CC3)CN(c3cnc(C(F)(F)F)nc3)C4)nc21 [Cmpd 526],< 10,
Cc1nn(CC(F)(F)F)c2nc(N3CCC4(CCN(c5cnc(C(F)(F)F)nc5)C4)C3)cnc12 (centres unmarked) [Cmpd 603],,10 to 50

Compound,EC50 [1] [µM],EC50 (EC50 given as range classes) [µM]
Cc1c(N2CC3(CCN(c4cnc5cnn(C6COC6)c5n4)C3)C2)ccnc1C(F)(F)F [Cmpd 1041],> 100,
FC(F)Cn1ncc2ncc(N3CC[C@]4(CCN(c5cnc(C(F)(F)F)nc5)C4)C3)nc21 [Cmpd 1133],10 to 50,
O=C1CC2(CCN(c3cnc4cnn(CC(F)F)c4n3)C2)CN1c1ccc(C(F)(F)F)nc1 (centres unmarked) [Cmpd 498],10 to 50,
FC(F)Cn1ncc2ncc(N3CCC4(CCCN(c5ccnc(C(F)(F)F)c5)C4)CC3)nc21 [Cmpd 225],,< 10
O=C(c1ccc(C(F)(F)F)cn1)N1CC2(CCN(c3cnc4cnn(CC(F)F)c4n3)CC2)C1 [Cmpd 328],10 to 50,
"FC(F)Cn1ncc2ncc(N3CCC4(CCC(Oc5cccnc5C(F)(F)F)C4)CC3)nc21 (centres unmarked) [Compound 86, 8-[1-(2,2-difluoroethyl)-1H-pyrazolo[3,4-b]pyrazin-6-yl]-2-{[2-(trifluoromethyl)pyridin-3-yl]oxy}-8-azaspiro[4.5]decane]",< 10,
Cc1nc(N2CC3(CCN(c4cnc5cnn(CC(F)F)c5n4)C3)C2)cc(C(F)(F)F)n1 [Cmpd 422],,< 10
"COCCN1CCC2(CCN(c3cnc4cnn(CC(F)F)c4n3)CC2)C1=O [Compound 116, 8-[1-(2,2-difluoroethyl)-1H-pyrazolo[3,4-b]pyrazin-6-yl]-2-(2-methoxyethyl)-2,8-diazaspiro[4.5]decan-1-one]",10 to 50,
FC(F)Cn1ncc2ncc(N3CCC4(C3)CN(c3ccnc(C(F)(F)F)c3)C4)cc21 [Cmpd 635],< 10,
Fc1cnc(N2CC3(CCN(c4cnc5cnn(CC(F)F)c5n4)C3)C2)cc1C(F)(F)F [Cmpd 453],10 to 50,
FC(F)Cn1ncc2ncc(N3CCOC4(CCN(c5ccc(C(F)(F)F)nc5)CC4)C3)nc21 [Cmpd 209],,< 10
O=C1C[C@]2(CC3CCC2CN3c2cnc3cnn(CC(F)F)c3n2)CN1c1ccc(C(F)(F)F)cn1 (some centres unmarked) [Cmpd 864],10 to 50,
CCn1c(N2CCC3(CN(c4ccnc(C(F)(F)F)c4)C3)C2)nc2c(cnn2CC(F)F)c1=O [Cmpd 1101],10 to 50,
O=S(=O)(c1ccc(Cl)cc1)N1CC2(CCN(c3cnc4cnn(CC(F)F)c4n3)C2)C1 [Cmpd 386],,10 to 50
O=C1N(c2cnc3cnn(CC(F)F)c3n2)CCC12CN(c1ccnc(C(F)(F)F)c1)C2 [Cmpd 339],10 to 50,
"Cc1nn(CC(F)F)c2nc(N3CCC4(CCN(c5cc(C(F)(F)F)ccn5)C4)CC3)cnc12 [Compound 178, 8-[1-(2,2-difluoroethyl)-3-methyl-1H-pyrazolo[3,4-b]pyrazin-6-yl]-2-[4-(trifluoromethyl)pyridin-2-yl]-2,8-diazaspiro[4.5]decane]",,10 to 50
CCn1c(=O)n(CC(F)F)c2ncc(N3CCC4(CN(c5cc(C(F)(F)F)nc(C)n5)C4)C3)nc21 [Cmpd 1075],10 to 50,
"FC(F)Cn1ncc2ncc(N3CCC4(CCN(c5ccc(C(F)(F)F)cn5)CC4)C3)nc21 [Compound 150, 2-[1-(2,2-difluoroethyl)-1H-pyrazolo[3,4-b]pyrazin-6-yl]-8-[5-(trifluoromethyl)pyridin-2-yl]-2,8-diazaspiro[4.5]decane]",10 to 50,
Cc1nc(C(F)(F)F)ncc1N1CC2(CCN(c3cnc4cnn([C@H]5CCOC5)c4n3)C2)C1 [Cmpd 656],50 to 100,
Cc1nn(C2COC2)c2nc(N3CCC4(CCN(c5ccc(C(F)(F)F)nc5)C4)CC3)cnc12 [Cmpd 888],< 10,
FC(F)(F)c1cc(N2CC3(CCN(c4cnc5cnn(C6COC6)c5n4)C3)C2)ccn1 [Cmpd 987],,> 100
CCCn1c(N2CCC3(CCN(c4cc(C(F)(F)F)nc(C)n4)C3)CC2)nc2c(cnn2CC(F)F)c1=O [Cmpd 1106],< 10,
